“Also recorded” adds a separate entry of the source.
Assays:
xenograft HepG2 cells = test: Xenograft mouse model of HCC, tumor volume; format: in vivo, mice
Protocol: FIG. 6A-B: Inhibition of IRE1α RNase activity with STF potentiates Sorafenib action in vivo. (A) Protocol timeline for Sorafenib (30 mg/kg i.p. daily) and/or STF-083010 (30 mg/kg i.p. twice a week) injections in mice with xenograft HepG2 cells. (B) Effect of SORA, STF, and their combination on tumor volume in mice. $p<0.05 when comparing treated to untreated counterpart. Results are expressed as mean with SEM *p<0.05.

[1] = test system: liver cancer cell (HepG2, Huh7 and Hep3B); test: Liver cancer cell proliferation; format: cell-based; details: for liver cancer cell proliferation and apoptosis, alone and co-treated with sorafenib (confirmation of the STF-083010 data): data not shown
Protocol: (§1) FIG. 3A-B: Inhibition of IRE1α RNase signalling with STF potentiates the effectiveness of Sorafenib in reducing liver cancer cell proliferation and inducing apoptosis. Effect of Sorafenib (SORA, 5 μM), STF-083010 (STF, 60 μM) and their combination on (A) liver cancer cell proliferation (HepG2, Huh7 and Hep3B) and on (B) inducing apoptosis. STF-083010 was added one hour before SORA. Stimulations were performed during 24 hours. $p<0.05 when comparing treated to untreated counterpart. Results are expressed as mean with SEM *p<0.05, **p<0.01, ***p<0.001 and ****p<0.0001.
(§2) FIG. 4: Hyperactive IRE1α RNase triggers secretion of pro-inflammatory markers. Effect of Sorafenib (SORA, […]), Ac-YVAD-CMK (YVAD, 25 μM) and their combination on liver cancer cell proliferation (HepG2) and on inducing apoptosis. Ac-YVAD-CMK (YVAD) was added one hour before SORA. Stimulations were performed during 24 hours. $p<0.05 when comparing treated to untreated counterpart. Results are expressed as mean with SEM *p<0.05, **p<0.01, ***p<0.001 and ****p<0.0001.
FIG. 5A-B: Co-treatment enhancing apoptosis via IRE1α kinase activity. Effect of Sorafenib (SORA, 5 μM), STF-083010 (STF, 60 μM) and their combination on HepG2 cells proliferation with or without (A) JNK inhibitor SP600125 (SP, 50 μM) pre-treatment or (B) Necrostatin (Nec-1, 50 μM) pre-treatment. Stimulations were performed during 24 hours. $p<0.05 when comparing treated to untreated counterpart. Results are expressed as mean with SEM *p<0.05, **p<0.01, ***p<0.001 and ****p<0.0001.

HCC cell lines = test: Apoptosis induction in HCC cell lines; format: cell-based; details: 24 hours
Protocol: as §1, §2

IRE1α RNase activity = molecular target: T1, IRE1α RNase activity (Mus musculus, UniProt Q9EQY0); test: IRE1α RNase signaling (XBP1 mRNA, sXBP1 protein) in primary hepatocytes from BI-1−/− or WT mice; format: cell-based; details: BI-1−/− primary hepatocytes; STF-083010 60 μM
T1 construct: Hepatocytes from mouse liver were isolated by a two-step collagenase procedure; endogenous in cells; host or cells: primary hepatocytes isolated from livers of BI-1−/− and WT mice
Protocol: (§3) Total RNA was extracted from liver tissue or cells then reverse-transcribed as previously described15. Real-time quantitative PCR was performed using the ABI PRISM 7500/Step-One Fast Real Time PCR System following the manufacturer's protocols in C3M genomics facilities. See the Supporting Methods for TaqMan gene expression assays.
(§4) Total protein was isolated from snap-frozen livers or primary hepatocytes homogenized in detergent-containing buffer, normalized for protein content (40 μg/tissue sample and 20 μg/cell sample), and analyzed by SDS-PAGE (8-15% gels) immunoblotting as previously described15. Western blot analyses were performed using antibodies described in Supporting Methods and detected with an enhanced chemiluminescence method (Amersham Biosciences, Piscataway, NJ, USA). Immunoblots were scanned and the signals were quantified using ImageJ software.
Hepatocytes from mouse liver were isolated by a two-step collagenase procedure, as we described18,23 and cultured in media detailed in Supporting Methods. […] After 48 hr of transfection, cells were treated with TM (1 μg/ml) or LPS (100 ng/ml) for the determined times. […] Cell viability was determined by a colorimetric assay (MTT) detailed in Supporting Methods. […]

[2] = test system: primary hepatocytes isolated from the livers of BI-1−/− and WT mice; test: Primary hepatocyte viability (MTT) with TM or LPS; format: cell-based, mouse
Protocol: (§5) Hepatocytes from mouse liver were isolated by a two-step collagenase procedure, as we described18,23 and cultured in media detailed in Supporting Methods. When indicated, primary hepatocytes were transfected with Stealth siRNA (targeting BI-1, IRE1α, XBP1 or CHOP with the corresponding control of Low or Medium CG) at 30 nM using Lipofectamine RNAiMAX (ThermoFisher Scientific, Courtaboeuf, France) according to the manufacturer's instructions. After 48 hr of transfection, cells were treated with TM (1 μg/ml) or LPS (100 ng/ml) for the determined times. Primary hepatocytes isolated from the livers of BI-1−/− and WT mice were treated with TM or LPS in the presence or absence of STF-083010 (60 μM) or Ac-YVAD-CMK (25 μM). Cell viability was determined by a colorimetric assay (MTT) detailed in Supporting Methods. Results are presented as a percentage of the control values.

HFD-fed BI-1−/− mice = test: HFD- or ND-fed BI-1+/+ and BI-1−/− mice treated with STF-083010 (NASH development); format: in vivo, mouse
Protocol: FIG. 1A-C: Early Into HFD feeding, limiting the ER stress response by inhibiting IRE1α RNase activity protects from steatosis and hyperglycemia. Starting 2.5 months after HFD feeding, BI-1+/+ and BI-1−/− mice were treated with STF-083010 (30 mg/kg) or vehicle (NT, Kolliphor 16%) twice a week for 2 weeks before sacrifice. (A) Relative liver triglyceride levels.
(A) Protocol timeline for vehicle (NT, Kolliphor 16%) or STF-083010 (30 mg/kg) injections in HFD-fed BI-1+/+ and BI-1−/− mice. (B) qPCR analysis of hepatic genes involved in lipid synthesis and metabolism (n=3). […] (C) Blood glucose concentrations in fed BI-1+/+ and BI-1−/− mice (n=6).
All animal procedures were conducted in compliance with French guidelines for the humane care and use of experimental animals. Male mice with targeted disruption of the BI-1 gene representing BI-1+/+(WT) and BI-1−/− littermates on a C57BL/6 background were obtained from Dr. John C. Reed at the Stanford-Burnham Institute for Medical Research (La Jolla, CA, USA)17,18. Experiments conducted with 12-week old mice included: 1) Mice injected intraperitoneally with TM (1 mg/kg) or vehicle and sacrificed 48 hr after treatment (unless otherwise indicated), 2) Animals either fed a ND (A04—Safe Diet, Augy, France) or HFD (60 kJ % fat, D12492-ssniff, Soest, Germany) for up to 9 months, 3) Towards the end of a 3-month ND or HFD, mice were injected with STF-083010 (30 mg/kg) or vehicle twice a week for 2 weeks before sacrifice. Mice were housed in a controlled environment with 12 hr light/dark cycles with water available ad libitum.
Liver tissue specimens were fixed in 10% buffered formalin, embedded in paraffin, sectioned (5 μm thick) and stained with either H&E, Masson's trichrome, MPO or TUNEL (Roche Molecular Biochemicals, Meylan, France). Specimens were evaluated by microscopy in a blinded manner by a liver pathologist.
as §3, §4
Serum AST and ALT levels were determined using a standardized UV test after activation with pyridoxal-phosphate and serum triglyceride levels were determined by standardized enzymatic colorimetric assay (Roche-Hitachi analyzer Cobas 8000, Meylan, France). Hepatic triglyceride content was measured using a Triglycerides FS 10′ kit (DiaSys, Holzheim, Germany). Cytokines were quantitatively measured by flow cytometry as described15.

NLRP3 inflammasome = test: Caspase-11 and NLRP3 overexpression in LPS-treated primary hepatocytes; format: cell-based, mouse; details: LPS-treated BI-1−/− primary hepatocytes; STF-083010 60 μM
Protocol: as §4
as §5, with “Results are presented as a percentage of the control values.” left out

[3] = BI-1−/− mice after 3 months of HFD
[4] = BI-1−/− mice, twice a week for 2 weeks towards the end of a 3-month HFD

T1 sequence (Q9EQY0 21-977): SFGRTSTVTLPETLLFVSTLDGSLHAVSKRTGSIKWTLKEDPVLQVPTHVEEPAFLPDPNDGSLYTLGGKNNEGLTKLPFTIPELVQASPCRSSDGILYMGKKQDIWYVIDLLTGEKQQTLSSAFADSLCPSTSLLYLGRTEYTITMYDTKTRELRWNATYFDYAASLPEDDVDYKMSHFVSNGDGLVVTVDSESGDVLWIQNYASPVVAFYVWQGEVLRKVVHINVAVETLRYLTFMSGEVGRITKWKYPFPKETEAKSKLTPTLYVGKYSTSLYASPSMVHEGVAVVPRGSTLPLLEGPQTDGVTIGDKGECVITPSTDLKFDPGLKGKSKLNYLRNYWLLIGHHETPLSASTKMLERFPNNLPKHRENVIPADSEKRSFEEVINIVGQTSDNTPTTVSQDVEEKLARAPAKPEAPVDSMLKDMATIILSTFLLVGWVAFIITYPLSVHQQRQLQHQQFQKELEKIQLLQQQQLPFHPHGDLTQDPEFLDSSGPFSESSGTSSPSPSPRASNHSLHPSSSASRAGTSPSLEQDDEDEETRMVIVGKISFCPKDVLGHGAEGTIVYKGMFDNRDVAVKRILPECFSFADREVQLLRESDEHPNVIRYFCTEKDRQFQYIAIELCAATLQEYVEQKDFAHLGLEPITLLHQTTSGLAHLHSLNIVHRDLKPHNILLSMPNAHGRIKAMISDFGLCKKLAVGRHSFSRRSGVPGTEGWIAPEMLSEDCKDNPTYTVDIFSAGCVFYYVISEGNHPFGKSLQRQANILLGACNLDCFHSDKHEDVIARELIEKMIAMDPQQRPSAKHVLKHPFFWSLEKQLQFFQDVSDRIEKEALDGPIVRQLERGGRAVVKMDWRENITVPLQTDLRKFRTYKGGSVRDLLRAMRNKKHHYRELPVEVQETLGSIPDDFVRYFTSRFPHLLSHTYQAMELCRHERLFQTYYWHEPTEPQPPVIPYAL

With `COc1cc2c(C)c(CC(=O)N3CCOCC3)c(=O)oc2c(C=O)c1O` [MKC6688] the “sorafenib-mediated tumor suppression (confirmation of the STF-083010 data)” value (xenograft HepG2 cells; data not shown) was “confirmed” and the “liver cancer cell proliferation and apoptosis, alone and co-treated with sorafenib (confirmation of the STF-083010 data)” value [1] was “confirmed”.
For `O=S(=O)(N=Cc1c(O)ccc2ccccc12)c1cccs1` [STF-083010, N-[(2-Hydroxy-1-naphthalenyl)methylene]-2-thiophenesulfonamide], the “effectiveness of sorafenib in inducing apoptosis” value (HCC cell lines; HCC cell lines, co-treated with Sorafenib 5 μM, STF 60 μM, FIG. 3B) was “improves their effectiveness”, the “sorafenib-mediated tumor suppression (tumor volume)” value (xenograft HepG2 cells; STF-083010 30 mg/kg i.p. twice a week with Sorafenib 30 mg/kg i.p. daily, FIG. 6B) was “increased” and the “liver cancer cell proliferation” value ([1]; HepG2, Huh7 and Hep3B, 60 μM alone, 24 hours, FIG. 3A) was “reduces”. For the same molecule, the “effectiveness of sorafenib in reducing liver cancer cell proliferation” value ([1]; co-treated with Sorafenib 5 μM, STF 60 μM added one hour before, 24 hours, FIG. 3A) was “improves their effectiveness”, the “XBP1 mRNA levels” value (IRE1α RNase activity) was “decrease” and the sXBP1 protein (IRE1α RNase activity) was “decrease”. For the same molecule, the “viability of WT hepatocytes” value ([2]; STF-083010 alone, 60 μM) was “compromised the viability”, the “viability of BI-1−/− hepatocytes” value ([2]; co-treated with TM and LPS, STF-083010 60 μM) was “improved the viability” and the NASH development (HFD-fed BI-1−/− mice; BI-1-deficient mice, HFD) was “rescuing from NASH; also recorded: reverses the propensity”. The “histological signs of inflammation and grade-3 steatosis” value (HFD-fed BI-1−/− mice; BI-1−/− HFD mice, 30 mg/kg twice a week for 2 weeks) was “suppressed”, the “activation of caspase-1/-11 and NLRP3 proteins” value (HFD-fed BI-1−/− mice; BI-1−/− HFD-fed mice) was “counteracted the activation” and the “mRNA levels of NLRP3 inflammasome and pro-inflammatory response components” value (HFD-fed BI-1−/− mice; BI-1−/− HFD-fed mice) was “normalized”. For the same molecule, the “collagen accumulation with cellular infiltration” value (HFD-fed BI-1−/− mice; [3]) was “prevented”, the “hepatic Col6a3 upregulation” value (HFD-fed BI-1−/− mice; [3]) was “significantly limited” and the “liver discoloration (macroscopic)” value (HFD-fed BI-1−/− mice; BI-1−/− mice fed a HFD for 3 months, 30 mg/kg twice a week for 2 weeks) was “prevented”. For the same molecule, the “IRE1a endoribonuclease activity in vivo” value (HFD-fed BI-1−/− mice; [4]) was “effectively counteracted”, the glucose tolerance (HFD-fed BI-1−/− mice; [4]) was “improving” and the “mRNA levels of metabolic master regulators (SREBP1, FASN and c-JUN)” value (HFD-fed BI-1−/− mice; HFD-fed BI-1−/− mice, liver qPCR, FIG. 2B) was “within normal mRNA levels”. For the same molecule, the “lipid droplet diameter in hepatocytes” value (HFD-fed BI-1−/− mice; HFD-fed BI-1−/− mice, 30 mg/kg twice a week for 2 weeks) was “from massive to average size”, the liver triglyceride content (HFD-fed BI-1−/− mice; HFD-fed BI-1−/− mice, 30 mg/kg twice a week for 2 weeks, FIG. 1A) was “Normalized” and the liver injury (HFD-fed BI-1−/− mice; HFD-fed mice, both genotypes) was “protected from liver injury”. The blood glucose concentrations (HFD-fed BI-1−/− mice; HFD-fed mice, FIG. 2C) was “normalization”, the “appearance of the liver” value (HFD-fed BI-1−/− mice; ND-fed mice) was “did not alter” and the MPO-positive cells (HFD-fed BI-1−/− mice; STF-083010-treated versus untreated mice fed a HFD) was “significant decrease”. For the same molecule, the “increase in BI-1 mRNA levels” value (HFD-fed BI-1−/− mice; WT mice fed a HFD, FIG. 1C) was 15%, the “CHOP/GRP78 ratio, protein and mRNA levels” value (HFD-fed BI-1−/− mice; livers from BI-1−/− mice, HFD) was “reduced” and the “expression of IRE1α RNase target sXBP1, protein and mRNA levels” value (HFD-fed BI-1−/− mice; livers from BI-1−/− mice, HFD) was “reduced”. For the same molecule, the “overexpression of active caspase-11 and NLRP3” value (NLRP3 inflammasome) was “limited”.
`CN1C(=O)C(Cc2c[nH]c3ccccc23)NC1=S` (stereo not shown) [Necrostatin-1] was tested, and the “effect of Sorafenib and SFT-083010 on cancer cell proliferation after pre-treatment” value ([1]; HepG2, 50 μM pre-treatment, Sorafenib 5 μM, STF 60 μM, 24 hours, FIGS. 5A and 5B) was “inhibit the effect”.
Ac-YVAD-CMK was tested, and the “effectiveness of sorafenib in inducing apoptosis” value (HCC cell lines; HepG2, YVAD 25 μM added one hour before Sorafenib, not more efficiently than SFT-083010, FIG. 4) was “enhances” and the “effectiveness of sorafenib in reducing liver cancer cell proliferation” value ([1]; HepG2, YVAD 25 μM added one hour before Sorafenib, 24 hours, not more efficiently than SFT-083010, FIG. 4) was “enhances”.
`Cc1cc(=O)oc2c(C=O)c(O)ccc12` [4μ8c] was tested, and the “liver cancer cell proliferation and apoptosis, alone and co-treated with sorafenib (confirmation of the STF-083010 data)” value [1] was “confirmed”.

Source: patent US20240024281A1, “METHODS AND COMPOSITIONS FOR TREATING LIVER DISEASES” (INSTITUT NATIONAL DE LA SANTÉ ET DE LA RECHERCHE MÉDICALE, priority 2018, published 2024)
